# Laboratory results taken from publication PMC6748986, “Potent modulation of the CepR quorum sensing receptor and virulence in a Burkholderia cepacia complex member using non-native lactone ligands” (Scientific Reports, 2019).
# Key:
# CepR [1] = biological target: T1, CepR (Burkholderia cenocepacia, UniProt B4EMD0); assay: CepR agonism in E. coli β-galactosidase reporter (Ec-reporter) JLD271 [pJN105-cepR + pSC11-cepI]; format: cell-based, B. cenocepacia; conditions: for Act%: screening conc. 100 μM
# T1 sequence (B4EMD0 1-239): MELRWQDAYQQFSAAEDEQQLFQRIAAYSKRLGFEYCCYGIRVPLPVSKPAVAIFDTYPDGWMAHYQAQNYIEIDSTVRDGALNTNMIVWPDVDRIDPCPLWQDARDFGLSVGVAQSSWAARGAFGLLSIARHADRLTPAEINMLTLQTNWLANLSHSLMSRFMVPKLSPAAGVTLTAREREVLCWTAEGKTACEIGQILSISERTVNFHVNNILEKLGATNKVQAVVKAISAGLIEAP
# Excerpt: (§1) We began our study by screening the AHL library for CepR modulators using an E. coli-based two plasmid reporter system (Ec-reporter)[38]–[40]. Certain members of the Bcc harbor additional QS systems that are either AHL-based (e.g., BviI/BviR in B. vietnamiensis)[41] or diffusible signal factor (DSF)-based (B. cenocepacia)[42], and at least one member of the Bcc has multiple receptors that respond to C8-AHL (e.g., CepR and CepR2 in B. cenocepacia)[43]. Thus, we reasoned that using a CepR reporter in a heterologous background could simplify our initial analyses. We modified our previously reported E. coli-based two plasmid β-galactosidase reporter system to develop a CepR Ec-reporter (see Methods). The first plasmid, pJN105-cepR, contains CepR from B. cenocepacia under the control of the L-arabinose inducible pBAD promoter. A second plasmid contains a transcriptional fusion of lacZ to the cepI promoter region. The two plasmids were co-transformed into a QS mutant E. coli strain (JLD271 ∆sdiA) that lacks its LuxR-type receptor, SdiA. Using this reporter system, if an exogenously -added compound is able to interact with CepR, this will affect the protein’s interaction with the cepI promoter region and alter β-galactosidase production. Enzyme production, and thereby CepR activity, is then measurable via the degradation of a colorimetric substrate for β-galactosidase. Using this new Ec-reporter, we observed robust activity of CepR in response to its native ligand C8-AHL, with an EC50 of 5 nM (Table 1).
# We used the CepR Ec-reporter to perform a primary agonism screen at a single compound concentration (100 μM, or its solubility limit, indicated in Table S1). Thirty-one compounds displaying ≥70% agonistic activity in CepR (relative to C8-AHL) were identified and subjected to dose-response analyses using the Ec-reporter (Table I; see Table S2 for complete screening data and Fig. S3 for dose-response curves).
# (§2) E. coli β-galactosidase reporter assays (derived from ref.[63]) and reagents used to obtain primary screening and dose-response data were performed as previously described[22],[60],[64], with the following modifications: E. coli JLD271 (∆sdiA) was co-transformed iteratively with pSC11-cepI and pJN105-cepR via electroporation. A single colony was used to start overnight cultures in LB medium + ampicillin (100 μg/mL) + gentamicin (15 μg/mL). A 1:10 dilution of overnight culture was grown in fresh medium to OD600 = 0.25. A sterile solution of L-arabinose in water (27 mM final concentration) was added to induce protein expression, after which cells were plated in 96-well plates containing varying concentrations of compound (200 μL total volume).
# (§3) Cells were grown for 4 h, OD600 was read, 50 μL aliquots from each well were permeabilized in 200 μL Z Buffer, and then 150 μL of this mixture used to measure the cleavage of 25 μL of 4 mg/mL CPRG in phosphate buffered saline (PBS) at 37 °C until positive control wells developed a deep red color (~30 min). For all agonism assays, synthetic compound (100 μM) was screened alongside and compared to the native ligand, C8-AHL (100 μM). For all primary and dose-response antagonism assays, the concentration of native ligand utilized was 10 nM (approximately equal to twice its EC50 value). […] At least 3 separate trials were performed using unique cultures on separate days.
# CepR [2] = biological target: T1, CepR; assay: CepR antagonism in E. coli β-galactosidase reporter (Ec-reporter), competition against C8-AHL; format: cell-based, B. cenocepacia; conditions: Table S3, Ec-reporter; screening conc. 100 μM; against 10 nM C8-AHL
# Excerpt: as §1
# To identify antagonists of CepR, we screened the AHL library (at 100 μM) in competition against the native ligand C8-AHL (at approximately twice its EC50 value, 0.01 μM) in the Ec-reporter. […] The active compounds were subjected to dose-response analyses in the Ec-reporter to obtain IC50 values and assess their relative potencies (Table 2; see Table S3 for complete screening data and Fig. S3 for dose-response curves). One general trend that we noted at the outset was the majority of the antagonists had acyl tails of similar or shorter overall length than CepR’s native ligand, C8-AHL. From this set, the strongest antagonists could be divided into two classes: (i) “short alkyl tail” AHLs or analogs thereof, and (ii) phenylacetanoyl HLs (PHLs). The discovery that the latter compounds were CepR antagonists was perhaps not surprising, as we have found substituted PHLs to strongly antagonize the majority of the LuxR-type receptors studied in our laboratory to date[22],[24],[29],[45],[46].
# as §2, §3
Molecule,"Act% (CepR [1]; Table S2, Ec-reporter, listed as Co n tro l 5) [%]",Inh% (100-Act%) (CepR [2]) [%],"Act% (CepR [1]; Table S2, Ec-reporter) [%]","EC50 (CepR [1]; Table S2, Ec-reporter) [nM]","EC50 (CepR [1]; Ec-reporter, agonism dose-response) [nM]","Maximal Activation (%) (CepR [1]; Ec-reporter, activity for 100 μM C8-AHL set to 100%, error ±10%)"
"O=C(Cc1ccccc1)N[C@H]1CCOC1=O [Control 5, reference compound]",9.8,11,,,,
"CCCCCCCCCCCCn1nnc(CC(=O)O)n1 [PD-12, reference compound]",,-40,-7.6,,,
O=C(Cc1ccc(Br)cc1)N[C@@H]1CCOC1=O [Compound B4],,0.0,-0.5,,,
O=C(Cc1ccc(SC(F)(F)F)cc1)N[C@H]1CCOC1=O [Compound E8],,0.0,14,,,
O=C(Cc1ccccc1)NC1CCCC1 [Compound F16],,-30,7.4,,,
O=C(N[C@H]1CCOC1=O)c1ccc(Br)cc1 [Compound B6],,18,56,,,
O=C(Cc1ccc(O)cc1)N[C@H]1CCOC1=O [Compound C23],,-10,-0.5,,,
O=C(N[C@H]1CCOC1=O)c1ccc(-c2ccccc2)cc1 [Compound Q12],,-70,111,,,
COc1ccc(OCC(=O)N[C@H]2CCOC2=O)cc1 [Compound E17],,0.0,50,,,
O=C(CCc1ccco1)N[C@H]1CCOC1=O [Compound D2],,0.0,70,,,
"CCCCCCCCCCCCCC(=O)CC(=O)NC1CCOC1=O (centres unmarked) [3’O-C16-AHL, reference compound]",,-50,8.3,,,
Cc1cccc(CC(=O)N[C@H]2CCOC2=O)c1 [Compound E1],,11,16,,,
"CCCCCCCCCC(O)CC(=O)N[C@H]1CCOC1=O (some centres unmarked) [3’OH-C12-AHL, reference compound]",,0.0,52,,,
CCCCCCCCCC(=O)CC(=O)NCc1ccccc1F [Compound F26],,20,-1.2,,,
O=C(N[C@H]1CCOC1=O)c1ccc(I)cc1 [Compound Q5],,0.0,78,,,
Cc1cccc(CCC(=O)N[C@H]2CCOC2=O)c1 [Compound E27],,-10,75,850,,
CCOc1ccc(C(=O)N[C@H]2CCOC2=O)cc1 [Compound R1],,-20,99,180,,
COc1cccc(OCC(=O)N[C@H]2CCOC2=O)c1 [Compound E18],,0.0,30,,,
Cc1ccc(C(=O)N[C@H]2CCOC2=O)cc1 [Compound Q8],,-20,19,,,
O=C(Cc1c[nH]c2ccccc12)N[C@H]1CCOC1=O [Compound B13],,22,-1.1,,,
O=C(COc1ccc(I)cc1)N[C@H]1CCOC1=O [Compound E22],,-30,92,,,
"O=C(CCCc1ccccc1)N[C@H]1CCOC1=O [Control 6, reference compound]",,3.0,80,,,
CCCc1ccc(C(=O)CCC(=O)N[C@H]2CCOC2=O)cc1 [Compound D7],,15,18,,,
"meta-bromo-thiolactone [mBTL, reference compound]",,-60,0.4,,,
Nc1ccc(CC(=O)N[C@H]2CCOC2=O)cc1 [Compound C21],,-20,21,,,
O=C(COc1ccc(F)cc1)N[C@H]1CCOC1=O [Compound E19],,22,42,,,
O=C(COc1ccccc1)N[C@H]1CCOC1=O [Compound E14],,-30,57,,,
O=C(CC(O)Cc1cccc(I)c1)N[C@H]1CCOC1=O (some centres unmarked) [Compound H15],,18,2.6,,,
O=C(CCc1cccc([N+](=O)[O-])c1)N[C@H]1CCOC1=O [Compound E38],,-10,93,,660,93
